In patent US20050079151A1, “Therapeutic agents for apoptosis-related diseases” (priority 1998, published 2005):
Like-named read-outs stand apart in the source and are kept apart here.

B1: mouse MK: mouse MK (JP-A No. Hei 8-196293) (protein, UniProt P12025 23-140, looked up)
Midkine: KKKEKVKKGSECSEWTWGPCTPSSKDCGMGFREGTCGAQTQRVHCKVPCNWKKEFGADCKYKFESWGACDGSTGTKARQGTLKKARYNAQCQETIRVTKPCTSKTKSKTKAKKGKGKD

Experiments:
hippocampal neurocytes = settings: cited from earlier work
Bcl-2 = experiment: Effect for enhancing Bcl-2 expression (Western blotting); type: cell-based; settings: G401 cells, MK 100 ng/ml, no cisplatin
Method: The effect of MK on the expression of the Bcl-2 gene was examined. Six groups were prepared; the untreated group, the cisplatin (100 μM) treated group, the human MK (100 ng/ml) treated group, the human MK (100 ng/ml)+cisplatin (100 μM) group, the mouse MK (100 ng/ml) treated group, and the mouse MK (100 ng/ml)+cisplatin (100 μM) treated group.
G401 cells were seeded on a 3.5 cm-dish and cultured in 10% FBS/DMEM until the cells became almost confluent. The cells were washed twice and cultured in 0.1% FBS/DMEM overnight. Then, human MK or mouse MK (JP-A No. Hei 8-196293) was added to the MK treatment groups at 100 ng/ml and cultured for six hours. Cisplatin was added to the cisplatin treatment group to 100 μM, and cultured for 2 hours. After culturing, the cells were washed with 0.1% FBS/DMEM three times, cultured in 0.1% FBS/DMEM for 10 hours, and washed with PBS three times.
Two hundred microliters of buffer [1% Triton X-100, 150 mM NaCl, 10 mM Tris (pH 7.4), 1.0 mM EGTA, 0.5% NP-40, 1 mM PMSF, 0.1 μg/ml apiotinin, 40 nM Iewpeptin] were added to each dish and kept on ice for 20 min. The cells in each dish were detached by a scraper, and mixed 8 to 10 times using a syringe with a 26-gauge needle. The cells of each dish were centrifuged in a centrifuge tube at 4° C. at 12000 rpm for 30 min. The precipitated proteins were quantified (BCA Kit; PIERCE). The precipitate prepared from each dish (50 μg) was analyzed by Western blotting using anti-Bcl-2 monoclonal antibody (500×) (Dako; Denmark) and anti-mouse HRP antibody (Jackson Immuno Research) (FIG. 6). The band in each lane is numerically shown (FIG. 7).

| Molecule | rescuing hippocampal neurocytes from delayed neuronal death (hippocampal neurocytes; 28 days after the injury (Ishimura et al. 1998)) | dosage required for protection from delayed neuronal death (hippocampal neurocytes; intraventricular injection (Shigeno et al. 1991)) [µg] | rescuing hippocampal neurocytes from delayed neuronal death (hippocampal neurocytes; seven days after development of the ischemic injury (Ishimura et al. 1998)) | expression of Bcl-2 (Bcl-2) |
| --- | --- | --- | --- | --- |
| NGF: neurotrophic factor reported in the literature to ameliorate delayed neuronal death | not effective | 10 | effective | – |
| B1 | – | – | – | enhanced the expression of Bcl-2 |
